Experimental findings from article PMC8032764 (Scientific Reports, 2021) are described below.

In general, % Inhibition refers to the relative decrease from the control value, in per cent. Usually Ki stands for a dissociation constant, usually derived from enzyme kinetics or from competition with a known ligand. Higher therefore signals a looser hold on the target. By Hill slope is commonly meant a measure of the steepness of the concentration-response curve. One may read the IC50 as the concentration needed to halve the response being measured.

Data set [1] can be described thus: Plasma levels, prepulse inhibition. The data set is classed as in vivo, rat. The note with it: approximately 60 min, mean ± SD. The method, then: intensities (72, 76, 80, 84 dB) at total plasma concentrations of 56 ± 20, 169 ± 20, and […]
Compound administered at 1, 3 and 10 mg/kg p.o. to male Sprague-Dawley rats 30 min prior to testing. Bars indicate mean percent prepulse inhibition (% PPI) ± SEM; 10 animals per dose group. Background noise: 68 dB. Startle pulse: 12 0 dB. For full methods refer to:
Nordquist et al. (2008). Effects of aripiprazole/OPC-14597 on motor activity, pharmacological models of psychosis, and brain activity in rats. Neuropharmacology , 54,405-416.
Animals were euthanized at the end of testing and plasma samples were collected approximately 60 min post administration; n = 4 rats per group.
(1 picture or pasted object on this page, not shown here)

The test system of the next data set is T1, Endothelin ETB.
T1 construct: purchased Eurofins Cerep
In words: Cerep binding. Further details: species or system human. The note with it: 10 μM; [125I]endothelin-1; hum. recomb. (CHO).

Data set [2] addresses T2, human GABAA α5β3γ2 (Homo sapiens, UniProt P18507+P31644). Description: biochemical. The note with it: 1 nM [3H]-flumazenil. The method, then:
(§1) HEK293-EBNA cells adapted to grow in suspension were transiently transfected with the plasmids containing the desired GABAA receptor subunit cDNAs at α, β, γ, 1:1:2 ratio using XtremeGENE Q2 (Cat. No. 03045595001, Roche Applied Science, RAS, Rotkreuz, Switzerland) as previously described. GABAA α1β2γ2, α2β3γ2, α3β3γ2, α4β3γ2, α5β3γ2 and α6β3γ2 receptor subtypes were expressed in this system. 48 h post transfection, the cells were harvested and washed three times with cold PBS and frozen at − 80 °C.
Non-specific binding was determined in the presence of 10 μM diazepam.

Data set [3] relates to Somatostatin (non-selective). Description: Cerep binding. To be noted: 10 μM; [125I]Tyr11-somatostatin-14; mouse, AtT-20 cells.
The target of another data set is T3, human α4β3γ2 (Homo sapiens, UniProt P18507+P48169).
T3 construct: expressed in transfected cells; host or cells: HEK293-EBNA, transient
Description: [3H]-Ro 15-4513 competition binding. The note with it: at > 3 µM; data not shown. The method, then: as §1
(§2) IC50 values were derived from the inhibition curve and Ki values were calculated as described below.

Another data set concerns the target T4, human α6β3γ2 (Homo sapiens, UniProt P18507+Q16445).
T4 construct: expressed in transfected cells; host or cells: HEK293-EBNA, transient
In words: [3H]-Ro 15-4513 competition binding. The note with it: at > 3 µM; data not shown. The method, then: as §1, §2

Data set [4] addresses T2, human GABAA α5β3γ2. In words: Two-electrode voltage clamp in Xenopus oocytes, current induced by EC10 of GABA. The class given is cell-based. Further details: expressed in transfected cells; host or cells: Xenopus laevis oocytes, cRNA injection. The method, then:
Freshly prepared oocytes of maturation stage VI were bought from Ecocyte Bioscience (Castrop-Rauxel, Germany) and, after overnight delivery, plated into 96-well plates (Greiner no. 651101) for microinjection on a ROBOOCYTE R16 system (Multichannel Systems MCS GmbH, Reutlingen, Germany). Each oocyte was injected with roughly 50 nL of RNA solution. The solution for expressing receptors composed of the human α1, β2 and γ2 subunits contained 3 pg/nL of α1 and β2 RNA and 15 pg/nL of γ2 RNA. The solution for expressing human α2β3γ2 receptors contained 2.5 pg/nL of α2 and β3 RNA, 5 pg/nL of γ2 RNA and 10 pg/nL of GABARAP RNA. The solution for expressing human α3β3γ2 receptors contained 1.3 pg/nL of α3 and β3 RNA and 6.5 pg/nL of γ2 RNA. The solution for expressing human α5β3γ2 receptors contained 1.3 pg/nL of α5 and β3 RNA and 13 pg/nL of γ2 RNA. […] After the microinjection the oocytes were kept at 20 °C temperature until the electrophysiological experiment. Experiments were done 3 to 5 days later on the ROBOOCYTE instrument which employs the two-microelectrode voltage-clamp technique for membrane voltage control and current measurement. […] During current recording and compound testing the cell membrane was constantly clamped to − 80 mV. Current signals were recorded and stored on a PC-type computer using the ROBOOCYTE software.
During the microinjection and up to the electrophysiological experiment the oocytes were kept in a solution containing 88 mM NaCl, 1 mM KCl, 2.5 mM NaHCO3, 10 mM HEPES (AppliChem GmbH, Darmstadt, Germany), 0.82 MgSO4, 0.33 mM Ca(NO3)2, 0.33 mM CaCl2, 100 U/mL penicillin (GIBCO, ThermoFisher Scientific) and 100 µg/mL streptomycine (GIBCO, ThermoFisher Scientific). The pH was adjusted to 7.5. During the experiment the voltage-clamped oocyte was constantly superfused by a solution containing 90 mM NaCl, 1 mM KCl, 5 mM HEPES (AppliChem), 1 mM MgCl2 and 1 mM CaCl2 (pH 7.4). GABA and test compounds were added to this solution. GABA concentrations were chosen according to previously determined concentration–response relations for the different human GABAA receptor subunit combinations. Concentrations evoking approximately 10% of a maximal response were selected, i.e., 8 µM for α1β2γ2, 6 µM for α2β3γ2, 10 µM for α3β3γ2 and 5 µM for α5β3γ2. Solutions containing GABA or test compounds were freshly prepared at least every second day. […] Compounds were further diluted in DMSO and finally in extracellular saline to reach a DMSO concentration of 0.1%. The same amount of DMSO was added to the control solutions without test compounds.
During the experiment the solutions were fed into the well containing the voltage-clamped oocyte via Teflon tubings connected by electromagnetic valves which allowed rapid switching between different solutions (controlled by the ROBOCYTE software). Approximately 1–2 min after impaling an oocyte and switching to voltage-clamp mode GABA was applied for 90 s to record a control response. Thereafter the oocyte was washed with saline for 160 s followed by another 90 s GABA application. Then 30 s after the onset of the second GABA application the system switched to a solution containing GABA plus the test compound. Each oocyte was used for testing one concentration of a single test compound (for α5β3γ2: 1 nM: n = 8, 10 nM: n = 8, 100 nM: n = 7, 1000 nM: n = 7).
In this case each GABA application lasted 110 s and the rest period between the two GABA applications was 190 s long.
On each 96-well plate 3–6 oocytes were used for testing a known NAM at the BZD binding site, β-CCM (FG7106), as a positive control. […] Maximally effective concentrations of β-CCM were used for each subunit combination, i.e., 100 nM β-CCM for α1β2γ2, 300 nM for α2β3γ2 or α3β3γ2 and 1 µM for α5β3γ2.
For orientation: Two-electrode voltage clamp holds a large cell at a set potential and records current.

Where [5] appears, read: concentration–response curve, n = 7.

Several values for one entry are separate records, joined by “and”; a condition that tells them apart may be missing. Equal values may be shown once.

With `Cc1onc(-c2ccc(F)cc2)c1COc1ccc(C(=O)N2CCS(=O)(=O)CC2)cn1` [basmisanil], the values for the total plasma concentration in data set [1] (1 mg/kg p.o.), in data set [1] (3 mg/kg p.o.) and in data set [1] (10 mg/kg p.o.) were 56 ± 20 ng/mL, 169 ± 20 ng/mL and 729 ± 255 ng/mL, respectively. Moreover, the “% Inhibition” value with Endothelin ETB is given as -2%; in data set [3] it was 18%. The Ki at human GABAA α5β3γ2 [2] is 5 nM and 5.1 nM. The binding result at human α4β3γ2 and at human α6β3γ2 was “no binding” in each case. The “decrease of GABA-induced current under co-treatment with flumazenil” value at human GABAA α5β3γ2 [4] (100 nM basmisanil + flumazenil 30 or 1000 nM) was “blocked by co-treatment with flumazenil”. Further, the “reduction of the GABA-evoked current” value at human GABAA α5β3γ2 [4] (1 µM, highest concentration tested, 5 µM GABA) came out at 42 ± 1%. Further, the Hill slope at human GABAA α5β3γ2 [4] (setting [5]) stood at 0.9. In addition, the IC50 on human GABAA α5β3γ2 [4] (setting [5]) stood at 8 nM.
